Values quoted from earlier work as cited in patent US6869615B2, “Pharmaceutical formulations containing a non-steroidal antiinflammatory drug and a proton pump inhibitor” (Andrx Labs LLC, priority 2000, dated 2005).

Row | SMILES | patients with side effects that require cessation of medication (NSAIDs such as diclofenac) | patients who experience gross bleeding and ulceration (chronic use, Langman et al, Lancet 1994)
1 | O=C(O)Cc1ccccc1Nc1c(Cl)cccc1Cl [diclofenac] | about 20% | 
2 | CN1C(C(=O)Nc2ccccn2)=C(O)c2ccccc2S1(=O)=O [piroxicam] |  | up to 4%
